Like-named read-outs stand apart in the source and are kept apart here.
What was measured:
[1] = target: T1, SCD1 (Homo sapiens, UniProt O00767); conditions: cited from earlier work
T1 sequence (O00767 1-359): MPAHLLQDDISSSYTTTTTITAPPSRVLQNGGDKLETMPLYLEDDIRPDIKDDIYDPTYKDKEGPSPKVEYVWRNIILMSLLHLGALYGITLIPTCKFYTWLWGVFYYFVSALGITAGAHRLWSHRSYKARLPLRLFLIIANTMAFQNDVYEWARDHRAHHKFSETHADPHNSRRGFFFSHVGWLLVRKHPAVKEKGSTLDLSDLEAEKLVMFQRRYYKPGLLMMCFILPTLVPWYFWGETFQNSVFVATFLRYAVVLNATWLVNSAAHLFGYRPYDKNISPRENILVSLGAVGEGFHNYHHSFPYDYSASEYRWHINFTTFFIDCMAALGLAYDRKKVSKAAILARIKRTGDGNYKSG

[2] = target: T1, SCD1; conditions: cited from earlier work; for IC50: human SCD1
[3] = target: T2, rat SCD1 (Rattus norvegicus, UniProt P07308); conditions: cited from earlier work
T2 sequence (P07308 1-358): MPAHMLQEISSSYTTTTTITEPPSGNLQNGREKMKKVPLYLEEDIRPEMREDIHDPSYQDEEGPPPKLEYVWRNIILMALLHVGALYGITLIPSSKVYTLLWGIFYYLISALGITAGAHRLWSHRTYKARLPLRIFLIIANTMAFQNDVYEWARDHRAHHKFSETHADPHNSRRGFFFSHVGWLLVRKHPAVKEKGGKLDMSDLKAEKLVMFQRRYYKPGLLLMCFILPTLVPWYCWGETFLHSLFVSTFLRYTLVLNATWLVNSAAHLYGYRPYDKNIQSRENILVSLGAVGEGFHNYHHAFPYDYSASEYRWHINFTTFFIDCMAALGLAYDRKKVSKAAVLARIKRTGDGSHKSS

[4] = 30 min incubation; cited from earlier work
[5] = target: T3, Δ6 desaturase (Homo sapiens, UniProt O95864); conditions: cited from earlier work
T3 sequence (O95864 1-444): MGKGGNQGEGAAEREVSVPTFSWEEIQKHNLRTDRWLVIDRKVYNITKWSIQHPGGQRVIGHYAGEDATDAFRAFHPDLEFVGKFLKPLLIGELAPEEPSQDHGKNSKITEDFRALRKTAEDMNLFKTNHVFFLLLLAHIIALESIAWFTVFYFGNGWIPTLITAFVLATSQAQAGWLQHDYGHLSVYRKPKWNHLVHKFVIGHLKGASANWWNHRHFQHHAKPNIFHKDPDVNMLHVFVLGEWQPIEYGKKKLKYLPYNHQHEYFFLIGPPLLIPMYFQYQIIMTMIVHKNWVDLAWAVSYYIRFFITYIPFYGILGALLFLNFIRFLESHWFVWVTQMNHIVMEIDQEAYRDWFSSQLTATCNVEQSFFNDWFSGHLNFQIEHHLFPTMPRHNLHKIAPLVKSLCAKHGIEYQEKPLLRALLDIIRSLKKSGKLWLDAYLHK

[6] = target: Δ5 desaturase (Homo sapiens, UniProt O60427); conditions: cited from earlier work
Sequence of Δ5 desaturase (O60427 whole entry, stated change not applied): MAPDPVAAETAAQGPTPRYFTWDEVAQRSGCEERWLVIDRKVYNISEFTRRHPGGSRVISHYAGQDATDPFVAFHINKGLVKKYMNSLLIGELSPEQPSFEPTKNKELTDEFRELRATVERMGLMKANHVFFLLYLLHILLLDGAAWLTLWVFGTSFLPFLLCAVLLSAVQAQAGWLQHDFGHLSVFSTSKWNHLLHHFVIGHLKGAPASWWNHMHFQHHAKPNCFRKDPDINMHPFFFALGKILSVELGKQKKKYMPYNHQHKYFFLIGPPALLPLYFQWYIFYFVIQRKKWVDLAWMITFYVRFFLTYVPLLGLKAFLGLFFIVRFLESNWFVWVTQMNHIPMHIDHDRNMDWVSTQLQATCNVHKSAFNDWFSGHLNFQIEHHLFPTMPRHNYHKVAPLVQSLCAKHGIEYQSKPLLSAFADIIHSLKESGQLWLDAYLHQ

[7] = 30 min incubation; cited from earlier work; remark: listed apart in the source
[8] = system: SREBP1 maturation, SCD1 and FASN expression; experiment: Western blot, FGF1-treated RT112 cells; type: cell-based, human
Description: (§1) FIG. 8. FGFR3 signalling promotes the accumulation of matured SREBP1 and lipogenesis via PI3K-mTORC1 pathway. (A) Pharmacological inhibition of FGFR3 signalling. RT112 cells were serum starved for 20 hr, then treated with rapamycin (50 nM), Ly294002 (Ly294, 20 μM) and PD325901(PD901, 100 nM) for 2 hr, followed by stimulation with 30 ng/ml FGF1 plus 10 μg/mL of heparin for 10 min. Cell lysates were subjected to immunoblot analyses with indicated antibodies. Note the increased phosphorylation of MEK upon PD901 treatment, presumably due to a relief of feedback inhibition. (B) PI3K-mTORC1 and MEK inhibitors block FGF1 induction of SREBP1 and SCD1 in RT112 cells. RT112 cells were serum starved for 20 hr, treated with kinase inhibitors for 4 hr, followed by 24 hr incubation in medium supplemented with 30 ng/ml FGF1. Cell lysates were immunoblotted to detect SREBP1 maturation, SCD1 and FASN expression. (C) PI3K-mTORC1 and MEK inhibitors block FGF1-stimulated lipid synthesis. RT112 cells were treated the same as described in (B). [^14C]acetate was added for the final 4 hr incubation. The lipid fraction was extracted and [^14C]acetate incorporated into lipids was measured by scintillation counting. Data were normalized to sample protein content, and presented as mean+/−SD.
(§2) It's worth noting that in Ca129 bladder cancer cells, rapamycin and Ly294002 blocked the accumulation of active SREBP1 and the expression of SCD1, consistent with the results observed in RT112 cells (FIG. 9). […] Thus, in bladder cancer cells, FGFR3 mainly signals through PI3K-mTORC1 axis to promote SREBP1 cleavage and activation, resulting in elevated de novo lipogenesis and fatty acid desaturation. The contribution of MEK-MAPK pathway may be cell line- and/or context-dependent.

[9] = system: total fatty acid synthesis; experiment: FGF1-stimulated lipid synthesis, [^14C]acetate, RT112 cells; type: cell-based, human
Description: as §1, with “(C) PI3K-mTORC1 and MEK inhibitors block FGF1-stimulated lipid synthesis. RT112 cells were treated the same as described in (B). [^14C]acetate was added for the final 4 hr incubation.” left out, “Data were normalized to sample protein content, and presented as mean+/−SD.” left out
Lipogenic activity was determined by monitoring the incorporation of [1,2-^14C] acetate (Perkin Elmer, Waltham, Mass.) into fatty acids as reported (39). […] The fatty acids fractions were collected, dried under a steam of nitrogen, and analyzed by scintillation counting. The [^14C] radioactivity was normalized to sample protein content. […]

[10] = system: phosphorylation of AKT, S6, and MAPK; experiment: Western blot, FGF1-stimulated RT112 cells; type: cell-based, human; conditions: rapamycin 50 nM, Ly294002 20 μM, PD325901 100 nM
Description: as §1, with “mean+/−SD. […]” for “mean+/−SD.”

[11] = system: matured SREBP1 and SCD1 expression; experiment: Western blot, FGF1-treated Ca129 cells; type: cell-based, human
Description: FIG. 9. FGFR3 signalling promotes the accumulation of matured SREBP1 and SCD1 expression via PI3K-mTORC1 pathway but not MEK-MAPK pathway in Ca129 cells. Ca129 cells were serum starved for 20 hr, treated for 4 hr with vehicle (DMSO), 50 nM rapamycin (Rapa), Ly294002 (Ly294, 20 μM) and PD325901(PD901, 100 nM). Then cells were cultured in medium supplemented with 30 ng/ml FGF1 for 24 hr. Cell lysates were analyzed by Western blot.
as §2

[12] = system: HT29; experiment: Cell viability, CellTiter-Glo; type: cell-based, human; conditions: for cell proliferation, oleate / palmitate supplement: HT29 cells; for IC50: Homo sapiens, HT-29, 72 h
Description: (§3) For SCD1 small molecule inhibitor experiment, cells were treated with indicated concentration of A37062 (Abbott compound 4c) or G02447171.1 (Daichii compound 24) in DMSO or DMSO alone for 48-72 hr. Cell viability was assessed with CellTiter-Glo at 72 hr post treatment (Promega). Activation of caspase 3 and caspase 7 was measured with the Caspase-Glo 3/7 assay kit at 48 hr after treatment (Promega). Values are presented as mean+/−SD of quadruplets. Data are representative of at least three independent experiments.
(§4) To investigate the effect of SCD1 small molecule antagonists on cancer cell lines were treated with serially diluted A37062 for 72 hr, and […] cell viability was measured by CellTiter-Glo (Promega) as described above.
(§5) To investigate the effect of additional SCD1 small molecule antagonists, HT29 and HCT15 were treated with serially diluted small molecule inhibitors RG1-14 and G02447171 (G7171) for 72 hr, and cell viability was measured by CellTiter-Glo (Promega). The specificity and selectivity of the SCD1 small molecule inhibitors was also evaluated.

[13] = system: HCT-15; experiment: Cell viability, CellTiter-Glo; type: cell-based, human; conditions: for cell proliferation, oleate / palmitate supplement: HCT15 cells; for IC50: Homo sapiens, HCT-15, 72 h
Description: as §3, §4, §5

Row | SMILES | IC50 ([12]; Experiment 1 HT29, 72 hr) | IC50 ([12]; Experiment 2 HT29, 72 hr) | IC50 ([13]; Experiment 1 HCT15, 72 hr) | IC50 ([13]; Experiment 2 HCT15, 72 hr) | further results
1 | Cc1nc(-n2ccc(OCc3ccc(F)cc3)cc2=O)sc1C(=O)NCc1ccc(Cl)nc1 [Compound 18] | – | – | – | – | IC50 [1]: 50 nM
2 | Cc1nc(-n2ccc3c(O)cccc3c2=O)sc1C(=O)NCc1ccccc1 [Compound 19] | – | – | – | – | IC50 [1]: 30 nM
3 | O=C(NCc1cccnc1)c1sc(N2CCN(Cc3ccc(F)cc3)C2=O)nc1C(F)(F)F [Compound 21] | – | – | – | – | IC50 [1]: 42 nM
4 | O=C(NCc1cccnc1)c1sc(N2CCN(Cc3ccc(F)cc3)C2=O)nc1C(F)(F)F [Compound 23] | – | – | – | – | IC50 [1]: 10 nM
5 | Cc1nnc(-c2ccc(N3CCC(Oc4cc(F)ccc4Cl)CC3)nn2)o1 [Compound 49] | – | – | – | – | IC50 [2]: 37 nM
6 | COc1ccc(-c2nc3cnc(NCc4ccc(Cl)c(Cl)c4)nc3n(CCNC(C)=O)c2=O)cc1 [Compound 51] | – | – | – | – | IC50 [3]: 250 nM; IC50 [2]: 280 nM
7 | COc1ccc(-c2nc3ccc(NCc4ccc(Cl)c(C(F)(F)F)c4)cc3n(CCNC(C)=O)c2=O)cc1 [Compound 54] | – | – | – | – | stability in HLM [4]: greater than 50%; selectivity against Δ6 desaturase [5]: selective; selectivity against Δ5 desaturase [6]: selective; stability in RLM [7]: greater than 50%
8 | O=C1O[C@@H](CO)CN1c1ccc(N2CCC(Oc3ccccc3C(F)(F)F)CC2)nc1 [Compound 67] | – | – | – | – | inhibition of human SCD1 ([2]; at 10 μM): 99%
9 | O=C(NOC[C@H](O)CO)c1ccc(F)c(F)c1Nc1ccc(I)cc1F [PD325901] | – | – | – | – | FASN expression [8]: reduced only modestly; SCD1 expression [8]: diminished significantly; basal and FGF1-induced level of the cleaved active SREBP1 [8]: substantially reduced; total fatty acid synthesis stimulated by FGF1 [9]: markedly suppressed; FGF1-induced activation of intended target (phosphorylation) [10]: blunted FGF1-induced activation of their intended target; accumulation of active SREBP1 [11]: only partially reduced; expression / induction of SCD1 [11]: did not have much effect
10 | O=c1cc(N2CCN(Cc3cc(Cl)cc(Cl)c3O)CC2)nc[nH]1 [RG1] | 95.7 nM | 33.5 nM | 5.84 nM | 13.4 nM | cell proliferation, oleate / palmitate supplement [12]: suppress cell proliferation in a fatty acid desaturation-dependent manner; cell proliferation, oleate / palmitate supplement [13]: suppress cell proliferation in a fatty acid desaturation-dependent manner
11 | O=c1cc(N2CCN(Cc3cc(I)ccc3O)CC2)nc[nH]1 [RG2] | 683 nM | 398 nM | 58.1 nM | 122 nM | –
12 | O=c1cc(N2CCN(Cc3cc(Cl)cc(Br)c3O)CC2)nc[nH]1 [RG3] | 42.6 nM | 14.5 nM | 2.77 nM | 8.22 nM | cell proliferation, oleate / palmitate supplement [12]: suppress cell proliferation in a fatty acid desaturation-dependent manner; cell proliferation, oleate / palmitate supplement [13]: suppress cell proliferation in a fatty acid desaturation-dependent manner
13 | O=c1cc(N2CCN(Cc3cc(F)cc(F)c3O)CC2)nc[nH]1 [RG4] | 547 nM | 346 nM | 289 nM | 244 nM | –
14 | O=c1cc(N2CCN(Cc3cccc(Cl)c3O)CC2)nc[nH]1 [RG5] | 277 nM | 328 nM | 152 nM | 383 nM | –
15 | O=c1cc(N2CCN(Cc3cc(Cl)ccc3O)CC2)nc[nH]1 [RG6] | 330 nM | 280 nM | 86.9 nM | 169 nM | –
16 | O=c1cc(N2CCN(Cc3cc(Cl)ccc3[N+](=O)[O-])CC2)nc[nH]1 [RG7] | 89.7 nM | 272 nM | 177 nM | 495 nM | –
17 | O=c1cc(N2CCN(Cc3cc(Br)cc(Br)c3O)CC2)nc[nH]1 [RG8] | 18.7 nM | 8.13 nM | 0.784 nM | 4.14 nM | cell proliferation, oleate / palmitate supplement [12]: suppress cell proliferation in a fatty acid desaturation-dependent manner; cell proliferation, oleate / palmitate supplement [13]: suppress cell proliferation in a fatty acid desaturation-dependent manner
18 | Cc1cccc(CN2CCN(c3cc(=O)[nH]cn3)CC2)c1O [RG11] | 243 nM | 266 nM | 148 nM | 416 nM | –
19 | Cc1cc(Cl)cc(CN2CCN(c3cc(=O)[nH]cn3)CC2)c1O [RG12] | 378 nM | 83.5 nM | 1 nM | 4.33 nM | –
20 | Cc1c(Br)cccc1CN1CCN(c2cc(=O)[nH]cn2)CC1 [RG13] | 129 nM | 191 nM | 288 nM | 274 nM | –
21 | O=c1cc(N2CCN(Cc3cc(OC(F)(F)F)ccc3O)CC2)nc[nH]1 [RG14] | 689 nM | 323 nM | 24.6 nM | 53 nM | –

From patent US9358250B2, “Methods of using SCD1 antagonists” (Genentech, Inc., priority 2011, dated 2016)
